Measurements as given in the supplement of paper PMC4862054.
“And” between values parts separate entries of the source, which are not always exact repeats. Identical values can stand only once.

Experiments:
BT-549 [1] = conditions: 72 h
Method in brief: (§1)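 Two sequential readouts followed a 72 h incubation of breast cancer cell lines with compound at 5 concentrations in 10-fold steps over a compound-specific 10,000-fold range: CellTox Green fluorescence (485/520 nm) for cell death, then CellTiter-Glo luminescence, after 10 min at room temperature, for viability. Each plate was normalised to 0.1 % DMSO and a positive kill control. Dose-response curves were fitted for EC50, censored at the top concentration.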

HCC1937 = conditions: 72 h
Method in brief: as §1

MDA-MB-436 [2] = conditions: 72 h
Method in brief: as §1

CAL-148 [3] = assay: normalised viability (% of control), CellTiter-Blue; higher = more viable cells (about 100 = DMSO control); conditions: 3000 nM; incubation time: 72 h
Experimental: (§2)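 DSRT, CellTiter-Blue viability, 72 h incubation. Signal is normalised to DMSO and benzethonium chloride controls. Value is the normalised response at dose 8.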

CAL-51 [4] = assay: as above; conditions: 3000 nM; incubation time: 72 h
Experimental: as §2

CAL-85-1 [5] = assay: as above; conditions: 3000 nM; incubation time: 72 h
Experimental: as §2

DU-4475 [6] = assay: as above; conditions: 3000 nM; incubation time: 72 h
Experimental: as §2

HDQ-P1 [7] = assay: as above; conditions: 3000 nM; incubation time: 72 h
Experimental: as §2

MDA-MB-453 [8] = assay: as above; conditions: 3000 nM; incubation time: 72 h
Experimental: as §2

BT-474 = assay: normalised viability (% of control), CellTiter-Blue; higher = more viable cells (about 100 = DMSO control); conditions: 100 nM; incubation time: 72 h
Method in brief: (§3)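 Each entry is normalised viability at a single listed concentration within a series. It comes from breast cancer cell lines incubated 72 h with compound in 384-well plates, then measured with CellTiter-Blue fluorescence at 560/590 nm. Every plate was normalised between vehicle (100) and a positive kill control (0).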

BT-549 [9] = assay: as above; conditions: 100 nM; incubation time: 72 h
Method in brief: as §3

CAL-51 [10] = assay: as above; conditions: 10 nM; incubation time: 72 h
Method in brief: as §3

CAL-85-1 [11] = assay: as above; conditions: 10 nM; incubation time: 72 h
Method in brief: as §3

DU-4475 [12] = assay: as above; conditions: 10 nM; incubation time: 72 h
Method in brief: as §3

HDQ-P1 [13] = assay: as above; conditions: 10 nM; incubation time: 72 h
Method in brief: as §3

Hs578T = assay: as above; conditions: 100 nM; incubation time: 72 h
Method in brief: as §3

MDA-MB-436 [14] = assay: as above; conditions: 100 nM; incubation time: 72 h
Method in brief: as §3

MFM-223 = assay: as above; conditions: 100 nM; incubation time: 72 h
Method in brief: as §3

SK-BR-3 = assay: as above; conditions: 100 nM; incubation time: 72 h
Method in brief: as §3

CAL-148 [15] = assay: normalised viability (% of control), CellTiter-Blue; higher = more viable cells (about 100 = DMSO control); conditions: 300 nM; incubation time: 72 h
Experimental: (§4)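 DSRT, CellTiter-Blue viability, 72 h incubation. Signal is normalised to DMSO and benzethonium chloride controls. Value is the normalised response at dose 6.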

CAL-51 [16] = assay: as above; conditions: 300 nM; incubation time: 72 h
Experimental: as §4

CAL-85-1 [17] = assay: as above; conditions: 300 nM; incubation time: 72 h
Experimental: as §4

DU-4475 [18] = assay: as above; conditions: 300 nM; incubation time: 72 h
Experimental: as §4

HDQ-P1 [19] = assay: as above; conditions: 300 nM; incubation time: 72 h
Experimental: as §4

MDA-MB-453 [20] = assay: as above; conditions: 300 nM; incubation time: 72 h
Experimental: as §4

CAL-148 [21] = assay: as above; conditions: 10000 nM; incubation time: 72 h
Experimental: (§5)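 DSRT, CellTiter-Blue viability, 72 h incubation. Signal is normalised to DMSO and benzethonium chloride controls. Value is the normalised response at dose 9.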

CAL-51 [22] = assay: as above; conditions: 10000 nM; incubation time: 72 h
Experimental: as §5

CAL-85-1 [23] = assay: as above; conditions: 10000 nM; incubation time: 72 h
Experimental: as §5

DU-4475 [24] = assay: as above; conditions: 10000 nM; incubation time: 72 h
Experimental: as §5

HDQ-P1 [25] = assay: as above; conditions: 10000 nM; incubation time: 72 h
Experimental: as §5

MDA-MB-453 [26] = assay: as above; conditions: 10000 nM; incubation time: 72 h
Experimental: as §5

Structure (SMILES)	EC50, CellTiter-Glo (BT-549 [1]) [nM]	EC50, CellTiter-Glo (HCC1937) [nM]	EC50, CellTiter-Glo (MDA-MB-436 [2]) [nM]	normalised viability (CAL-148 [3])	normalised viability (CAL-51 [4])	normalised viability (CAL-85-1 [5])	normalised viability (DU-4475 [6])	normalised viability (HDQ-P1 [7])	normalised viability (MDA-MB-453 [8])	normalised viability (BT-474)	normalised viability (BT-549 [9])	normalised viability (CAL-51 [10])	normalised viability (CAL-85-1 [11])	normalised viability (DU-4475 [12])	normalised viability (HDQ-P1 [13])	normalised viability (Hs578T)	normalised viability (MDA-MB-436 [14])	normalised viability (MFM-223)	normalised viability (SK-BR-3) [%]	normalised viability (CAL-148 [15])	normalised viability (CAL-51 [16])	normalised viability (CAL-85-1 [17])	normalised viability (DU-4475 [18])	normalised viability (HDQ-P1 [19])	normalised viability (MDA-MB-453 [20])	normalised viability (CAL-148 [21]) [%]	normalised viability (CAL-51 [22])	normalised viability (CAL-85-1 [23]) [%]	normalised viability (DU-4475 [24])	normalised viability (HDQ-P1 [25])	normalised viability (MDA-MB-453 [26]) [%]
C=CC(=O)Nc1cc2c(Nc3ccc(F)c(Cl)c3)ncnc2cc1OCCCN1CCOCC1 [Canertinib]	2110	3340	4370	60%	79.9%	34.3%	103%	27.5%	28.2%	55.7%	114%	109%	85.4%	108%	96.6%	79.4%	102%	98.3%	21.4	81.2%	104%	54%	93.3%	32.4%	48.6%	29.8	4.95%	2.97	6.91%	1.8%	10.3
Nc1ncn([C@H]2C[C@H](O)[C@@H](CO)O2)c(=O)n1 [Decitabine]	604	3500		81.2% and 73.7%	98.4% and 79.8%	83% and 88.5%	69.8% and 78.9%	88.6% and 93.3%	87% and 93.1%	87.1% and 95.7%	102% and 98.4%	112% and 102%	96% and 100%	98.1% and 117%	109% and 95.9%	85.2% and 99.2%	89.6% and 90.8%	79% and 95.3%		97.3% and 76%	99% and 92.1%	81.5% and 90.7%	86% and 85.5%	65.3% and 81.8%	95.2% and 101%		66.7% and 70.4%		53.4% and 64.7%	97.9% and 90.5%	
O=C(Cc1ccc(-c2ccc(OCCN3CCOCC3)cc2)cn1)NCc1ccccc1 [KX2-391]	44.7	34.5	51.4	24.2%	11.3%	42.1%	8.65%	41.6%	36.2%	63.5%	27.8%	101%	88.1%	94.4%	108%	20.7%	59.9%	52.8%	19.3	20.4%	13.9%	36.3%	9.43%	46.6%	28.3%	34.2	12.5%	45.4	15.5%	47.6%	38.1
